“And” between values parts separate entries of the source, which are not always exact repeats. Equal values may be shown once.
Columns and labels:
[1] = tested on: Gaussia luciferase secreted from mammalian cells; assay: Bioluminescence of mammalian-secreted Gaussia luciferase in assay buffer (luminometer);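 on all read-outs here: mammalian cell culture supernatants containing secreted Gaussia luciferase were combined with coelenterazine assay buffer and light emission was read on a luminometer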; settings: for Gaussia luciferase (mammalian) bioluminescence t = 0 / Gaussia luciferase (mammalian) bioluminescence t = 10: 1.3 μM substrate in 0.5xPBS; for Gaussia luciferase (mammalian) bioluminescence t = 0: t = 0 minutes; for Gaussia luciferase (mammalian) bioluminescence t = 10: t = 10 minutes; for effect on magnitude (M at t = 1-2 minutes) of bioluminescent signal, Mammalian Gluc / effect on stability (S at time = 7-10 minutes) of bioluminescent signal, Mammalian Gluc: comparison: 1% EDTA to 0%, 0.2% NP40 to 0.025% or 0%, 4 μM coel. to 1.3 μM, 4 μM benzyl coel. to 1.3 μM; for RLU: zero time; for effect on magnitude (M) of bioluminescent signal, Mammalian Gluc: NaCl conc. 0.075M compared to 0.5M; for bioluminescence T = 0 / bioluminescence T = 15 / bioluminescence T = 45: 0.2% detergent final concentration in 0.5×PBS; for bioluminescence T = 0 / bioluminescence T = 15 / bioluminescence T = 45 / stability of the luminescent signal in the presence of different detergents: 1.3 μM coelenterazine; for bioluminescence T = 0: T = 0 minutes; for bioluminescence T = 15: T = 15 minutes; for bioluminescence T = 45: T = 45 minutes; for stability of the luminescent signal in the presence of different detergents: 0.2% and 0.02% detergent, no EDTA, read again after 15 minutes
Text: Reagents used in the examples include: PBS (Amresco, Solon, Ohio), PBS with Ca/Mg/K (Invitrogen, Carlsbad, Calif.), Igepal CA-630 referred to throughout as NP40 (Sigma Aldrich, St. Louis, Mo.), Standard Renilla assay reagent (Promega, Madison, Wis.), coelenterazine and benzyl coelenterazzine (Prolume/NanoLight Technologies, Pinetop, Ariz.), expression vector for Gaussia luciferase in mammals (New England Biolabs, Inc., Ipswich, Mass.), Dulbecco's minimal essential medium (DMEM) (Invitrogen, Carlsbad, Calif.) used for diluting mammalian and bacterial expressed Gaussia luciferase. Measurements of bioluminescence were carried out with a luminometer (Turner TD2020 luminometer, Turner BioSystems, Sunnyvale, Calif.).
An amount of this coelenterazine solution was added to the assay buffer to a final concentration in the range of I-10 μM. 50 μl of the assay buffer was mixed with 20 μl of sample containing luciferase and bioluminescence was measured using a luminometer.
In this example, 20 μl of mammalian Gaussia luciferase samples (cell supernatants) were mixed with 8 μl of the indicated detergents at 2% and 0.2% concentration (final concentration of detergents in assay solution was 0.2% and 0.02%) and 50 μl of the Gaussia luciferase assay reagent (0.5×PBS, no EDTA, 1.3 μM coelenterazine) and read in a Turner TD2020 Luminometer, Turner BioSystems, Sunnyvale, Calif. The samples were read again after 15 minutes to evaluate the stability of the luminescent signal in the presence of different detergents.

[2] = tested on: purified recombinant bacterial Gaussia luciferase; assay: Bioluminescence of recombinant bacterial Gaussia luciferase in assay buffer (luminometer); format: biochemical, Gaussia princeps; settings: for Gaussia luciferase (bacterial) bioluminescence t = 0 / Gaussia luciferase (bacterial) bioluminescence t = 10: 1.3 μM substrate in 0.5xPBS; for Gaussia luciferase (bacterial) bioluminescence t = 0: t = 0 minutes; for Gaussia luciferase (bacterial) bioluminescence t = 10: t = 10 minutes; for effect on magnitude (M at t = 1-2 minutes) of bioluminescent signal, bacterial Gluc / effect on stability (S at time = 7-10 minutes) of bioluminescent signal, bacterial Gluc: comparison: 1% EDTA to 0%, 0.2% NP40 to 0.025% or 0%, 4 μM coel. to 1.3 μM, 4 μM benzyl coel. to 1.3 μM
Method: Renilla luciferase is commercially available from Prolume/NanoLight Technologies, Pinetop, Ariz. Recombinant bacterial Gaussia luciferase was obtained from Prolume/Nanolight Technologies, Pinetop, Ariz. […] An amount of powdered bacterial Gaussia luciferase obtained from Nanolight Technologies, Pinetop, Ariz., was dissolved in DMEM and diluted in control assay buffer until a reading could be obtained from a luminometer.

Renilla luciferase = biological target: T1, Renilla luciferase (Renilla reniformis, UniProt P27652); assay: Bioluminescence of Renilla luciferase in assay buffer (luminometer); format: biochemical; settings: for Renilla luciferase bioluminescence t = 0 / Renilla luciferase bioluminescence t = 20: 1.3 μM substrate in 0.5xPBS, 0.025% NP40; for Renilla luciferase bioluminescence t = 0: t = 0 minutes; for Renilla luciferase bioluminescence t = 20: t = 20 minutes; for effect on magnitude (M at t = 1-2 minutes) of bioluminescent signal, Bacterial Rluc / effect on stability (S at time = 7-10 minutes) of bioluminescent signal, Bacterial Rluc: comparison: 1% EDTA to 0%, 0.2% NP40 to 0.025% or 0%, 4 μM coel. to 1.3 μM, 4 μM benzyl coel. to 1.3 μM; for effect of 0.2% detergent on Renilla luciferase activity (FIG. 7): 0.2% v/v detergent, T=0 and T=18 minutes; for stability of the luminescent signal in the presence of different detergents: 0.2% and 0.02% detergent
T1 construct: purchased Prolume/NanoLight Technologies, Pinetop, Ariz
T1 sequence (P27652 1-311): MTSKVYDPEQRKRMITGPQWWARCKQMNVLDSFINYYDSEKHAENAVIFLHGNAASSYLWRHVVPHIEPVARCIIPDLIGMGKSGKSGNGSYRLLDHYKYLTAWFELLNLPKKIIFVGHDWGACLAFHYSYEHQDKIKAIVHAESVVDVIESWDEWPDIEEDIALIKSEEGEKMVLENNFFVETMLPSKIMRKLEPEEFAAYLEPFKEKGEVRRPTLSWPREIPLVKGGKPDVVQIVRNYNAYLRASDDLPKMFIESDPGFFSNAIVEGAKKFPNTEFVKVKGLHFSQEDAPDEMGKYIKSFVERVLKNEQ
Text: Renilla luciferase is commercially available from Prolume/NanoLight Technologies, Pinetop, Ariz. Recombinant bacterial Gaussia luciferase was obtained from Prolume/Nanolight Technologies, Pinetop, Ariz.

Firefly luciferase = Firefly luciferase (Photinus pyralis, UniProt P08659); assay: Summary of effect on bioluminescent signal of firefly luciferase; format: biochemical
[3] = 1.3 μM substrate, 0.5×PBS, 1% EDTA, 0.025% NP40, compared with 1.3 μM coelenterazine

Firefly luciferase, sequence (P08659 whole entry): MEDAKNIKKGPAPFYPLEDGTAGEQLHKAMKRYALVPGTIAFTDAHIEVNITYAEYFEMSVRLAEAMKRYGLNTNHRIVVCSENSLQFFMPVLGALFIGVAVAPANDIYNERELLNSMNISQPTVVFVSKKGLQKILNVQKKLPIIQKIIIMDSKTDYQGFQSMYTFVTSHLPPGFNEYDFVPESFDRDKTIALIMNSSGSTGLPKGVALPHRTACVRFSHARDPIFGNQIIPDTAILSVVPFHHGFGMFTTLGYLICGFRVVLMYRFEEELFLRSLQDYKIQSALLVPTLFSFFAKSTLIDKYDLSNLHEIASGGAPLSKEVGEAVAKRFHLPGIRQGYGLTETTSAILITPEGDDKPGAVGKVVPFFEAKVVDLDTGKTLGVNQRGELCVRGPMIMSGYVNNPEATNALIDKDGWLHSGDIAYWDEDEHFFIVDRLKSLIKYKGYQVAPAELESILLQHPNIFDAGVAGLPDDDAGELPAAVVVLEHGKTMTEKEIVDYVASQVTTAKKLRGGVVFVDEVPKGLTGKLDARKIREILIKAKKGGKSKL

In the case of Oc1ccc(Cc2nc3c(Cc4ccccc4)nc(-c4ccc(O)cc4)cn3c2O)cc1 [Coel., coelenterazine], the “Gaussia luciferase (mammalian) bioluminescence t = 0” value ([1]; 0.025% NP40) is reported as 594 and 565 and 556, the “Gaussia luciferase (mammalian) bioluminescence t = 10” value ([1]; 0.025% NP40) is reported as 31 and 30 and 29 and the “effect of coelenterazine concentrations greater than 4 μM on luciferase activity (FIG. 4A)” value ([1]; 1.3-25 μM coelenterazine in 0.5×PBS, 1% EDTA, 0.025% NP40, zero time) is reported as “no significant increase in luciferase activity”. For the same molecule, the “effect on magnitude (M at t = 1-2 minutes) of bioluminescent signal, Mammalian Gluc” value [1] was “M up”, the “Gaussia luciferase (bacterial) bioluminescence t = 0” value ([2]; 0.025% NP40) was 1630 and 1837 and 1903 and the “Gaussia luciferase (bacterial) bioluminescence t = 10” value ([2]; 0.025% NP40) was 58 and 59 and 60. For the same molecule, the “effect of coelenterazine concentrations greater than 4 μM on luciferase activity (FIG. 4B)” value ([2]; 1.3-25 μM coelenterazine) was “no significant increases in luciferase activity”, the “effect on magnitude (M at t = 1-2 minutes) of bioluminescent signal, bacterial Gluc” value (“effect on magnitude … bacterial Gluc” below) [2] was “M up” and the “Renilla luciferase bioluminescence t = 0” value (Renilla luciferase) was 2296 and 1790 and 2520. The “Renilla luciferase bioluminescence t = 20” value (Renilla luciferase) was 194 and 139 and 211, the “effect on magnitude (M at t = 1-2 minutes) of bioluminescent signal, Bacterial Rluc” value (from here on “effect on magnitude … Bacterial Rluc”) (Renilla luciferase) was “M up” and the “effect on stability (S at time = 7-10 minutes) of bioluminescent signal, Bacterial Rluc” value (shortened to “effect on stability … Bacterial Rluc”) (Renilla luciferase) was “S down”.
For O=C(O)CN(CCN(CC(=O)O)CC(=O)O)CC(=O)O [EDTA], the “effect on magnitude (M at t = 1-2 minutes) of bioluminescent signal, Mammalian Gluc” value [1] was “M down”, the “effect on stability (S at time = 7-10 minutes) of bioluminescent signal, Mammalian Gluc” value (“effect on stability … Mammalian Gluc” below) [1] was “S up” and the “effect on magnitude (M at t = 1-2 minutes) of bioluminescent signal, Firefly” value (Firefly luciferase; 1% EDTA compared to 0%) was “M down”. The “effect on magnitude … bacterial Gluc” value [2] was “M down”, the “effect on magnitude … Bacterial Rluc” value (Renilla luciferase) was “M down” and the “effect on stability … Bacterial Rluc” value (Renilla luciferase) was “S down”.
[Cl-].[Na+] [NaCl, sodium chloride] was tested, and the RLU ([1]; 0.175M NaCl in adjusted 0.5 × PBS + 1% EDTA + 0.025% NP40 + 1.3 μM coel.) was 1322 RLU and 1350 RLU and 1242 RLU, the RLU ([1]; 0.275M NaCl in adjusted 0.5 × PBS + 1% EDTA + 0.025% NP40 + 1.3 μM coel.) was 1364 RLU and 1252 RLU and 1204 RLU and the RLU ([1]; 0.375M NaCl in adjusted 0.5 × PBS + 1% EDTA + 0.025% NP40 + 1.3 μM coel.) was 1129 RLU and 1098 RLU and 1246 RLU. For the same molecule, the RLU ([1]; 0.5M NaCl in adjusted 0.5 × PBS + 1.3 μM coel.) was 1212 RLU and 701 RLU, the RLU ([1]; 0.575M NaCl in adjusted 0.5 × PBS + 1% EDTA + 0.025% NP40 + 1.3 μM coel.) was 1049 RLU and 1035 RLU and 1149 RLU and the RLU ([1]; 1M NaCl in adjusted 0.5 × PBS + 1.3 μM coel.) was 760 RLU and 750 RLU. For the same molecule, the “effect on magnitude (M) of bioluminescent signal, Mammalian Gluc” value ([1]; + EDTA) was “M same + EDTA” and the “effect on magnitude (M) of bioluminescent signal, Mammalian Gluc” value ([1]; −EDTA-NP40) was “M down”.
With CCCCCCCCCCCCOS(=O)(=O)[O-].[Na+] [SDS, sodium dodecyl sulfate] the “bioluminescence T = 0” value ([1]; 1% EDTA) was 0 RLU, the “bioluminescence T = 15” value ([1]; 1% EDTA) was 0 RLU and the “bioluminescence T = 45” value ([1]; 1% EDTA) was 0 RLU.
For CCCCCCCC/C=C\CCCCCCCC(=O)OCCOCC(OCCO)C1OCC(OCCO)C1OCCO (stereo not shown) [Tween80], the “bioluminescence T = 0” value ([1]; 1% EDTA) was 128 RLU, the “bioluminescence T = 15” value ([1]; 1% EDTA) was 101 RLU and the “bioluminescence T = 45” value ([1]; 1% EDTA) was 58 RLU. The “effect of 0.2% detergent on Renilla luciferase activity (FIG. 7)” value (from here on “effect of 0.2% detergent”) (Renilla luciferase) was “stabilizing effect”.
With NP40 the “stability of the luminescent signal in the presence of different detergents” value (“stability … of different detergents” for short) ([1]; 0.5×PBS) was “optimum stability”, the “bioluminescence T = 0” value ([1]; 1% EDTA) was 87 RLU and the “bioluminescence T = 15” value ([1]; 1% EDTA) was 112 RLU. The “bioluminescence T = 45” value ([1]; 1% EDTA) was 79 RLU, the “effect on magnitude (M at t = 1-2 minutes) of bioluminescent signal, Mammalian Gluc” value [1] was “M down” and the “effect on stability … Mammalian Gluc” value [1] was “S up”. For the same molecule, the “effect on stability (S at time = 7-10 minutes) of bioluminescent signal, Firefly” value (Firefly luciferase; 0.2% NP40 compared to 0.025% or 0%) was “S up”, the “effect on magnitude … bacterial Gluc” value [2] was “M down” and the “effect on stability (S at time = 7-10 minutes) of bioluminescent signal, bacterial Gluc” value [2] was “S up”. For the same molecule, the “stability … of different detergents” value (Renilla luciferase) was “optimum stability”, the “effect of 0.2% detergent” value (Renilla luciferase) was “stabilizing effect” and the “effect on magnitude … Bacterial Rluc” value (Renilla luciferase) was “M down”. The “effect on stability … Bacterial Rluc” value (Renilla luciferase) was “S up”.
With Triton X-100 the “stability … of different detergents” value ([1]; 0.5×PBS) was “optimum stability”, the “bioluminescence T = 0” value ([1]; 1% EDTA) was 59 RLU and the “bioluminescence T = 15” value ([1]; 1% EDTA) was 80 RLU. For the same molecule, the “bioluminescence T = 45” value ([1]; 1% EDTA) was 63 RLU, the “stability … of different detergents” value (Renilla luciferase) was “optimum stability” and the “effect of 0.2% detergent” value (Renilla luciferase) was “stabilizing effect”.
benzyl coelenterazine [Benzyl Coel.] was tested, and the “Gaussia luciferase (mammalian) bioluminescence t = 0” value ([1]; 0.025% NP40) was 34 and 30 and 31, the “Gaussia luciferase (mammalian) bioluminescence t = 10” value ([1]; 0.025% NP40) was 3.49 and 3.6 and 3.66 and the “suitability as substrate (FIG. 8)” value [1, 3] was “poor substrate”. The “effect on magnitude (M at t = 1-2 minutes) of bioluminescent signal, Mammalian Gluc” value [1] was “M down”, the “effect on stability … Mammalian Gluc” value [1] was “S down” and the “Gaussia luciferase (bacterial) bioluminescence t = 0” value ([2]; 0.025% NP40) was 81.75 and 83 and 84. The “Gaussia luciferase (bacterial) bioluminescence t = 10” value ([2]; 0.025% NP40) was 7.9 and 8.1, the “suitability as substrate (FIG. 8)” value [2, 3] was “poor substrate” and the “effect on magnitude … bacterial Gluc” value [2] was “M down”. For the same molecule, the “effect on stability (S at time = 7-10 minutes) of bioluminescent signal, bacterial Gluc” value [2] was “S down”, the “Renilla luciferase bioluminescence t = 0” value (Renilla luciferase) was 9036 and 7687 and 7955 and the “Renilla luciferase bioluminescence t = 20” value (Renilla luciferase) was 2234 and 1944 and 1359. For the same molecule, the “suitability as substrate (FIG. 9)” value (Renilla luciferase; 1.3 μM substrate, 0.5×PBS, 0.025% NP40, 1% EDTA, compared with 1.3 μM coelenterazine) was “good substrate”, the “effect on magnitude … Bacterial Rluc” value (Renilla luciferase) was “M up” and the “effect on stability … Bacterial Rluc” value (Renilla luciferase) was “S up”.
deoxycholate [DOC] was tested, and the “bioluminescence T = 0” value ([1]; 1% EDTA) was 4 RLU, the “bioluminescence T = 15” value ([1]; 1% EDTA) was 2 RLU and the “bioluminescence T = 45” value ([1]; 1% EDTA) was 2 RLU.

— patent publication US7939286B2, “Enhancing a luminescent signal” (Targeting Systems, priority 2005, dated 2011)
